Experimental data taken from patent US5502214A, “1,2-benzoquinones and methods for making and using same” (priority 1993, dated 1996).
Like-named read-outs stand apart in the source and are kept apart here.

Columns and labels:
[1] = system: EMT-6 mouse mammary tumor cells; assay: In vitro cytotoxicity screen (colony formation); assay type: cell-based; details: 1 hour drug exposure at 37° C., EMT-6 colony formation
Protocol: Cell Line and Culture. The cell line used in the screen was EMT-6 mouse mammary tumor cells in culture that were maintained in exponential growth in Waymouth's medium (I.S.I. Corp., Chicago, Ill.), supplemented with 15% newborn calf serum, penicillin (100 units/ml), and streptomycin (100 μg/ml) (Grand Island Biological Co., Grand Island, N.Y.). The doubling time of these cultures, growing at 37° C. in a 5% CO2 /95% air atmosphere, was 16-19 hours. In vitro plating efficiencies of control cultures were 65-80%.
Production of Hypoxia. To produce hypoxia, plastic flasks, containing exponentially growing monolayers of tumor cells in complete medium plus serum, were fitted with sterile rubber septums and exposed to a continuously flowing 95% N2 /5% CO2 humidified atmosphere for 4 hours at 37° C. as described by B. A. Teicher et al., Int. J. Radiat. Oncol. Biol. Phy., 11:937-940 (1985); and B. A. Teicher et al., Cancer Res., 41:73-81 (1981). Parallel flasks were maintained in 95% air/5% CO2. At the end of 4 hours, the drug specified in Table I below was added to the flasks by injection through the rubber septum without disturbing the hypoxia. […]
Drug Treatments. Exponentially growing cells were exposed to varying concentrations of the drugs specified in Table I below for 1 hour at 37° C. Non-drug-treated controls were handled identically. Drugs were prepared in sterile phosphate-buffered saline immediately before use and added to the cells in a small volume (50-100 μl). […] After treatment, the medium was removed, and the cultures were washed twice with phosphate buffered saline and suspended by trypsinization.
Cell Viability Measurements. Cell viability was measured by the ability of single cells to form colonies in vitro, as described by B. A. Teicher et al., Int. J. Radiat. Oncol. Biol. Phys., 11:937-940 (1985); and B. A. Teicher et al., Cancer Res., 41:73-81 (1981). Following treatment, suspensions of known cell numbers were plated in plastic Petri dishes and allowed to grow in a 37° C. incubator under standard culture conditions for 8-10 days. After this time interval, macroscopic colonies were stained with crystal violet in methanol containing 3.7% formaldehyde and were counted manually. Each experiment was repeated 3 times and each data point per experiment represents the results of 3 different dilutions of cells plated in triplicate.

L1210 leukemia = assay: In vivo antitumor test, L1210 leukemia implanted i.p. in DBA mice; details: for SURVIVAL: lifespan post tumor cell inoculation; for % ILS: vs untreated controls
Protocol: L1210 leukemia (10^6) cells were implanted intraperitoneally in DBA mice (Taconic Farms, Germantown, N.Y.) on day 0. Treatment with each drug was carried out daily for 5 days. The drugs were administered intraperitoneally at the doses shown on Table II below. Each treatment group had six animals and the experiment was carried out twice. The percent increase-in-lifespan (% ILS) is for the treated subjects compared with the untreated controls.
^a Drugs were administered i.p. daily on days 1-5.
^b Lifespan of the animals post tumor cell innoculation.

[2] = Mus musculus, EMT6, 1 h, Hypoxia, read-out: IC50
[3] = Mus musculus, EMT6, 1 h, Normal oxygenation, read-out: IC50
[4] = Mus musculus, EMT6, 1 h, Hypoxia
[5] = Mus musculus, EMT6, 1 h, Normal oxygenation
[6] = 1.00 mg/kg i.p. daily on days 1-5
[7] = 2.50 mg/kg i.p. daily on days 1-5
[8] = 5.00 mg/kg i.p. daily on days 1-5
[9] = 10.00 mg/kg i.p. daily on days 1-5
[10] = Mus musculus, EMT6, Normal oxygenation, read-out: IC90
[11] = 0.50 mg/kg i.p. daily on days 1-5
[12] = 1.25 mg/kg i.p. daily on days 1-5
[13] = 1.50 mg/kg i.p. daily on days 1-5
[14] = 2.00 mg/kg i.p. daily on days 1-5

CCOC(=O)NC1=C(N2CC2)C(=O)C(NC(=O)OCC)=C(N2CC2)C1=O [AZQ, 3,6-bis(ethylcarboxyamino)-2,5-diaziridinyl-1,4-benzoquinone, reference compound]
IC50 [1, 2]: 7.5 µM
IC90 ([1]; Mus musculus, EMT6, 1 h, Hypoxia, read-out: IC90): 17.5 µM
IC50 [1, 3]: 5 µM
IC90 ([1]; Mus musculus, EMT6, 1 h, Normal oxygenation, read-out: IC90): 15.5 µM

COC1=CC(=O)C(=O)C=C1NCCCl [4-chloroethylamino-5-methoxy-1,2-benzoquinone]
IC50 [1, 4]: 110 µM
IC90 [1, 4]: 190 µM
IC50 [1, 5]: 125 µM
IC90 [1, 5]: 455 µM

O=C1C=C(N2CCC2)C(N2CCC2)=CC1=O [4,5-Azetidinyl-1,2-Benzoquinone, 4,5-azetidinyl-1,2-benzoquinone]
SURVIVAL (L1210 leukemia; [6]): 8.0 days
% ILS (L1210 leukemia; [6]): 8%
SURVIVAL (L1210 leukemia; [7]): 7.8 days
% ILS (L1210 leukemia; [7]): 5%
SURVIVAL (L1210 leukemia; [8]): 7.8 days
% ILS (L1210 leukemia; [8]): 5%
SURVIVAL (L1210 leukemia; [9]): 6.4 days
% ILS (L1210 leukemia; [9]): toxic
IC90 ([1]; Hypoxia, read-out: IC90): > 500 µM
IC50 [1, 2]: 400 µM
IC50 [1, 3]: 500 µM
IC90 [1, 10]: > 500 µM

COC1=CC(=O)C(=O)C=C1OC [4,5-Methoxy-1,2-Benzoquinone, 4,5-Dimethoxy-1,2-benzoquinone, reference compound]
IC90 ([1]; Hypoxia, read-out: IC90): > 500 µM
IC50 [1, 2]: > 500 µM
IC50 [1, 3]: 500 µM
IC90 [1, 10]: > 500 µM

CCN(CC)C1=CC(=O)C(=O)C=C1N(CC)CC [4,5-bis-(Diethylamino)-1,2-Benzoquinone, 4,5-bis-(diethylamino)-1,2-benzoquinone]
SURVIVAL (L1210 leukemia; [6]): 7.8 days
% ILS (L1210 leukemia; [6]): 5%
SURVIVAL (L1210 leukemia; [7]): 8.4 days
% ILS (L1210 leukemia; [7]): 14%
SURVIVAL (L1210 leukemia; [8]): 8.6 days
% ILS (L1210 leukemia; [8]): 16%
SURVIVAL (L1210 leukemia; [9]): 7.8 days
% ILS (L1210 leukemia; [9]): 5%
IC90 ([1]; Hypoxia, read-out: IC90): > 500 µM
IC50 [1, 2]: 400 µM
IC50 [1, 3]: 500 µM
IC90 [1, 10]: > 500 µM

O=C1C=C(N2CCCC2)C(N2CCCC2)=CC1=O [4,5-Pyrrolidinyl-1,2-Benzoquinone, 4,5-pyrrolidinyl-1,2-benzoquinone]
SURVIVAL (L1210 leukemia; [6]): 8.0 days
% ILS (L1210 leukemia; [6]): 8%
SURVIVAL (L1210 leukemia; [7]): 8.0 days
% ILS (L1210 leukemia; [7]): 8%
SURVIVAL (L1210 leukemia; [8]): 7.6 days
% ILS (L1210 leukemia; [8]): 3%
SURVIVAL (L1210 leukemia; [9]): 6.3 days
% ILS (L1210 leukemia; [9]): toxic
IC90 ([1]; Hypoxia, read-out: IC90): > 500 µM
IC50 [1, 2]: > 500 µM
IC50 [1, 3]: > 500 µM
IC90 [1, 10]: > 500 µM

O=C1C=C(N2CC2)C(N2CC2)=CC1=O [4,5-Aziridinyl-1,2-Benzoquinone, 4,5-aziridinyl-1,2-benzoquinone]
SURVIVAL (L1210 leukemia; [11]): 12.6 days
% ILS (L1210 leukemia; [11]): 70%
SURVIVAL (L1210 leukemia; [6]): 13.4 days
% ILS (L1210 leukemia; [6]): 81%
SURVIVAL (L1210 leukemia; [12]): 13.6 days
% ILS (L1210 leukemia; [12]): 84%
SURVIVAL (L1210 leukemia; [13]): 13.8 days
% ILS (L1210 leukemia; [13]): 86%
SURVIVAL (L1210 leukemia; [14]): 11.8 days
% ILS (L1210 leukemia; [14]): 59%
SURVIVAL (L1210 leukemia; [7]): 6.0 days
% ILS (L1210 leukemia; [7]): toxic
IC50 [1, 4]: 0.2 µM
IC90 [1, 4]: 1 µM
IC50 [1, 5]: 0.4 µM
IC90 [1, 5]: 1.1 µM
